Results taken from patent publication US20240252677A1, “ONE-COMPONENT DELIVERY SYSTEM FOR NUCLEIC ACIDS” (The Trustees of the University of Pennsylvania, priority 2021, published 2024).

Legend:
[1] = test system: HEK293T cells; assay: In vitro Luc-mRNA transfection, luciferase luminescence expression in HEK293T cells; assay type: cell-based, human; set-up: unit not given here; settings: n=3
Summary of the method: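 HEK293T cells were transfected with nucleoside-modified firefly luciferase mRNA at 125 ng/well delivered in the test particles. TransIT and MC3-based LNPs at equal mRNA dose served as comparators. After 24 h (18-20 h in some runs) at 37° C the cells were lysed, and luciferase luminescence was read on a luminometer, in triplicate.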

[2] = test system: BALB/c mice; assay: In vivo mRNA delivery in mice with DNPs, whole-body bioluminescence imaging (IVIS); settings: for Organs with luminescence: Table 13
Protocol: The exposure time was 1 min.
Luminescence characterization for in vivo transfection experiments employed bioluminescence imaging with an IVIS Spectrum imaging system (PerkinElmer, Waltham, MA). Mice were anesthetized with 3% of isoflurane (Piramal Healthcare Limited) and intraperitoneally (i.p.) administered with D-luciferin (Regis Technologies) at a dose of 150 mg/kg of body weight. Ten minutes post administration of D-luciferin, mice were placed on the imaging platform while being maintained on isoflurane via a nose cone and imaged using an exposure time of 60 seconds. […] To quantify luminescent flux, an oval ROI was placed over each organ of interest and analyzed.
Tissue luminescence signal was measured on the IVIS imaging system using an exposure time of 60 seconds using medium binning (binning=8) to ensure that the signal obtained was within operative detection range. […] Bioluminescence imaging was performed as described above.
Luminescence Characterization for In Vivo Transfection Experiments: bioluminescence imaging was performed with an IVIS Spectrum imaging system (PerkinElmer, Waltham, MA).

[3] = test system: lung; assay: In vivo mRNA delivery, IVIS imaging of organs: lung; set-up: species or system mice; key to Organs with luminescence: lung: strong: Strong meant the luminescence intensity in that organ was relatively high, compared to other organs; weak: Weak meant the luminescence intensity in that organ was relatively low, compared to other organs; settings: for Organs with luminescence: lung: Table 17, mice, IVIS, 4-6 h after injection, intensity relative to other organs; for Organs with luminescence: lung (weak/strong): Table 14
[4] = test system: spleen; assay: In vivo mRNA delivery, IVIS imaging of organs: spleen; set-up: species or system mice; key to Organs with luminescence: spleen: strong: Strong meant the luminescence intensity in that organ was relatively high, compared to other organs; weak: Weak meant the luminescence intensity in that organ was relatively low, compared to other organs; settings: for Organs with luminescence: spleen: Table 17, mice, IVIS, 4-6 h after injection, intensity relative to other organs; for Organs with luminescence: spleen (weak/strong): Table 14
[5] = pKa measurements of individual IAJD molecules by titration; assay type: physicochemical; settings: ethanol saturated with NaCl, titrated with 0.1 M aqueous HCl, titration
Summary of the method: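 Compound dissolved at 1.5 mg/mL in NaCl-saturated ethanol and titrated with 0.1 M HCl in 7.5 μL steps, pH read by electrode after each addition. pKa taken from the half-equivalence point.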

[6] = Table 16, HEK 293T cells, 125 ng/well
[7] = Table 20, nonsymmetric IAJDs and MC3-Luc-mRNA
[8] = HEK293T cells, Luc-mRNA 125 ng/well
[9] = Table 15, individual IAJD molecule

Compound	Luminescence [1, 6]	In vivo activity (total flux, p/s) ([2]; Table 19, nonsymmetric IAJDs)	Organs with luminescence: lung [3]	Organs with luminescence: spleen [4]	pKa ([5]; individual IAJD molecules)	further results
CCCCCCCCCCCCCCCOc1cc(COC(=O)CCCN2CCN(C)CC2)cc(OCCCCCCCCCC)c1 [IAJD 141, 3-(Decyloxy)-5-(pentadecyloxy)benzyl 4-(4-methylpiperazin-1-yl)butanoate]	140,589	2.06 × 10^7 p/s	Lung (weak),	spleen (strong)	6.56	
CCCCCCCCCCCCCCCCOc1cc(COC(=O)CCCN2CCN(C)CC2)cc(OCCCCCCCCCCCCCCC)c1 [IAJD 149, 3-(Hexadecyloxy)-5-(pentadecyloxy)benzyl 4-(4-methylpiperazin-1-yl)butanoate]	149,935	2.26 × 10^7 p/s	Lung (weak),	spleen (strong)	6.5	
CCCCCCCCCCCCCCCCCCOc1cc(COC(=O)CCCN2CCN(CCO)CC2)cc(OCCCCCCCCCCCCC)c1 [IAJD 178, 3-(Octadecyloxy)-5-(tridecyloxy)benzyl 4-(4-(2-hydroxyethyl)piperazin-1-yl)butanoate]	235,419	4.05 × 10^8 p/s	Lung (weak),	spleen (strong)	5.97	In vivo activity (total flux, p/s) [2, 7]: 4.05 × 10^8 p/s; total flux luminescence ([2]; mice, in vivo Luc-mRNA transfection): 4.05×10^8 p/s; in vivo activity, times higher than symmetric IAJD with the same headgroup ([2]; nonsymmetric vs symmetric alkyl chains (178 vs 99 (18/18))): 90.2 times; in vivo activity, times lower than of MC3 ([2]; total flux luminescence vs MC3): 4.2 times
CCCCCCCCCCCCCCOc1cc(COC(=O)CCCN2CCN(C)CC2)cc(OCCCCCCCCCCC)c1 [IAJD 105, 3-(Tetradecyloxy)-5-(undecyloxy)benzyl 4-(4-methylpiperazin-1-yl)butanoate]		4.74 × 10^7 p/s	Lung (weak),	spleen (weak)		Luminescence [1, 8]: 85; Organs with luminescence: lung (weak/strong) ([3]; imaging 6 h after injection): Lung (weak),; Organs with luminescence: spleen (weak/strong) ([4]; imaging 6 h after injection): spleen (weak); pKa [5, 9]: 6.5
CCCCCCCCCCCOc1cc(COC(=O)CCCN2CCN(C)CC2)cc(OCCCCCCCCCC)c1 [IAJD 114, 3-(Decyloxy)-5-(undecyloxy)benzyl 4-(4-methylpiperazin-1-yl)butanoate]	1,580	3.56 × 10^6 p/s	Lung (weak),	spleen (strong)	6.43	
CCCCCCCCCCCCCCOc1cc(COC(=O)CCCN2CCN(C)CC2)cc(OCCCCCCCCCCCCC)c1 [IAJD 171, 3-(Tetradecyloxy)-5-(tridecyloxy)benzyl 4-(4-methylpiperazin-1-yl)butanoate]	1,436	7.68 × 10^7 p/s	Lung (weak),	spleen (strong)	6.16	In vivo activity (total flux, p/s) [2, 7]: 7.68 × 10^7 p/s
CCCCCCCCCCCOc1cc(COC(=O)CCCN2CCN(CCO)CC2)cc(OCCCCCCCCCC)c1 [IAJD 115, 3-(Decyloxy)-5-(undecyloxy)benzyl 4-(4-(2-hydroxyethyl)piperazin-1-yl)butanoate]	390,021	4.59 × 10^6 p/s	Lung (weak),	spleen (strong)	6.32	
CCCCCCCCCCCOc1cc(COC(=O)CCCN2CCN(CCO)CC2)cc(OCCCCCCCCC)c1 [IAJD 122, 3-(Nonyloxy)-5-(undecyloxy)benzyl 4-(4-(2-hydroxyethyl)piperazin-1-yl)butanoate]	55,101	2.50 × 10^7 p/s	Lung (weak),	spleen (strong)	6.66	
CCCCCCCCCCCCCCCOc1cc(COC(=O)CCCN2CCN(C)CC2)cc(OCCCCCCCCCCCCCC)c1 [IAJD 147, 3-(Pentadecyloxy)-5-(tetradecyloxy)benzyl 4-(4-methylpiperazin-1-yl)butanoate]	5,844	9.24 × 10^6 p/s	Lung (weak),	spleen (strong)	6.32	
CCCCCCCCCCCCCCOc1cc(CNC(=O)CCCN2CCN(C)CC2)cc(OCCCCCCCCCCCCCC)c1 [IAJD 108, N-(3,5-bis(tetradecyloxy)benzyl)-4-(4-methylpiperazin-1-yl)butanamide]						Luminescence [1, 8]: 136,424; Organs with luminescence ([2]; mice, IVIS imaging 6 h after injection): Lung, spleen; Organs with luminescence: lung (weak/strong) ([3]; imaging 6 h after injection): Lung (strong),; Organs with luminescence: spleen (weak/strong) ([4]; imaging 6 h after injection): spleen (weak); pKa [5, 9]: 6.59
CCCCCCCCCCCCCCCCCOc1cc(COC(=O)CCCN2CCN(C)CC2)cc(OCCCCCCCCCCCCCCC)c1 [IAJD 151, 3-(Heptadecyloxy)-5-(pentadecyloxy)benzyl 4-(4-methylpiperazin-1-yl)butanoate]	9,310	3.12 × 10^7 p/s	Lung (weak),	spleen (strong)	6.39	
CCCCCCCCCCCCOc1ccc(COC(=O)CCCN2CCN(C)CC2)cc1OCCCCCCCCCCCC [IAJD 78, 3,4-Bis(dodecyloxy)benzyl 4-(4-methylpiperazin-1-yl)butanoate]						Luminescence [1, 8]: 8,688; Organs with luminescence ([2]; mice, IVIS imaging 5 h after injection): Lung, spleen; Organs with luminescence: lung (weak/strong) ([3]; imaging 5 h after injection): Lung (strong),; Organs with luminescence: spleen (weak/strong) ([4]; imaging 5 h after injection): spleen (weak); pKa [5, 9]: 6.46
CCCCCCCCCCCCCCCCCCOc1cc(COC(=O)CCCN2CCN(CCO)CC2)cc(OCCCCCCCCCCC)c1 [IAJD 128, 3-(Octadecyloxy)-5-(undecyloxy)benzyl 4-(4-(2-hydroxyethyl)piperazin-1-yl)butanoate]	449,311	5.53 × 10^7 p/s	Lung (weak),	spleen (strong)	6.68	In vivo activity (total flux, p/s) [2, 7]: 5.53 × 10^7 p/s
CCCCCCCCCCCCCCCCCCOc1cc(COC(=O)CCCN2CCN(C)CC2)cc(OCCCCCCCCCCCC)c1 [IAJD 107, 3-(Dodecyloxy)-5-(octadecyloxy)benzyl 4-(4-methylpiperazin-1-yl)butanoate]		2.19 × 10^7 p/s	Lung (weak),	spleen (strong)		Luminescence [1, 8]: 93,745; Organs with luminescence: lung (weak/strong) ([3]; imaging 6 h after injection): Lung (weak),; Organs with luminescence: spleen (weak/strong) ([4]; imaging 6 h after injection): spleen (strong); pKa [5, 9]: 6.42
CCCCCCCCCCCCCCCOc1cc(COC(=O)CCCN2CCN(CCO)CC2)cc(OCCCCCCCCCCCCCC)c1 [IAJD 148, 3-(Pentadecyloxy)-5-(tetradecyloxy)benzyl 4-(4-(2-hydroxyethyl)piperazin-1-yl)butanoate]	139,420	6.33 × 10^7 p/s	Lung (weak),	spleen (strong)	6.65	
CCCCCCCCCCCCCCCCOc1cc(COC(=O)CCCN2CCN(CCO)CC2)cc(OCCCCCCCCCCCCCCC)c1 [IAJD 150, 3-(Hexadecyloxy)-5-(pentadecyloxy)benzyl 4-(4-(2-hydroxyethyl)piperazin-1-yl)butanoate]	134,225	3.47 × 10^7 p/s	Lung (weak),	spleen (strong)	6.65	
